Data: patent publication US8269000B2, “Substituted pyrimidine and triazine compounds” (Gruenenthal GmbH, priority 2008, dated 2012)

molecular target: T1, rat B1R (Rattus norvegicus, UniProt P97583); test: FLIPR Ca2+ functional study on bradykinin receptor 1 (rB1R CHO K1 cells); type: cell-based; details: % inhibition rat B1R at 10 μM
T1 construct: expressed in transfected cells; host or cells: CHO K1 cells
T1 sequence (P97583 1-337): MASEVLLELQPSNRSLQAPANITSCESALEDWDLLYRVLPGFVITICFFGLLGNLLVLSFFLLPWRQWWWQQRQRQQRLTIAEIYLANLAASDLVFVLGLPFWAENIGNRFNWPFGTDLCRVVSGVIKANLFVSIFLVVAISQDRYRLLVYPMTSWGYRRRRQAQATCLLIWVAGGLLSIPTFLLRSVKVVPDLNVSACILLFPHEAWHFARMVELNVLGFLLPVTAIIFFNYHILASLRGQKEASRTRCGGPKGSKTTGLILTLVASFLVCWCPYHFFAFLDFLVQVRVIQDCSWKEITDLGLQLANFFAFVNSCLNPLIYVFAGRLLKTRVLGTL
How it was run: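 Antagonism was calculated as % of maximal inhibition of the Ca2+ rise triggered by agonist at EC80 (Lys-Des-Arg9-bradykinin for hB1R, Des-Arg9-bradykinin for rB1R), added 10-20 min after test compound (10 μM or serial dilutions for IC50) to Fluo-4-loaded transfected CHO K1 cells on FLIPR. Duplicates or triplicates, ≥2 independent runs.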

For COc1cc(C)c(S(=O)(=O)N2CCC[C@@H]2COc2ccnc(N3CCCN(Cc4ccccn4)CC3)n2)c(C)c1 [H_CC-043, 1-[4-[[(2R)-1-[(4-methoxy-2,6-dimethyl-phenyl)sulfonyl]-pyrrolidin-2-yl]-methoxy]-pyrimidin-2-yl]-4-(pyridin-2-yl-methyl)-[1,4]diazepam], which “% inh. (rat B1R) 10 μM” value is on record?
Its value is 80%.

How did the “% inh. (rat B1R) 10 μM” value turn out when COc1cc(C)c(S(=O)(=O)N2CCC[C@H]2COc2ccnc(N3CCC(c4nc(-c5ccncc5)no4)CC3)n2)c(C)c1 [H_CC-048] was run?
Its value is 63%.

same assay, conditions: CHO-K1, % inhibition rat B1R at 10 μM, read-out: % inh. (rat B1R) 10 μM

COc1cc(C)c(S(=O)(=O)N(C)CCOc2ccnc(N3CCC(OCCN4CCCC4)(c4cccnc4)CC3)n2)c(C)c1 [H_CC-033, 4-methoxy-N,2,6-trimethyl-N-[2-[[2-[4-(3-pyridyl)-4-(2-1-pyrrolidinylethoxy)-1-piperidinyl]-4-pyrimidinyl]oxy]ethyl]benzenesulfonamide] was tested. Which inhibition at 10 µM did it give?
Its inhibition at 10 µM is 82%.

COc1cc(C)c(S(=O)(=O)N(C)CCOc2ccnc(N3CC4CC3CN4Cc3ccncc3)n2)c(C)c1 (stereo not shown) [H_CC-034, 4-methoxy-N,2,6-trimethyl-N-[2-[[2-[2-(4-pyridylmethyl)-2,5-diazabicyclo[2.2.1]heptan-5-yl]-4-pyrimidinyl]oxy]ethyl]benzenesulfonamide] was tested. Which inhibition at 10 µM did it give?
The inhibition at 10 µM was 74%.

With COc1cc(C)c(S(=O)(=O)N2CCCCC2COc2ccnc(N3CCC(OCCN4CCCC4)(c4cccnc4)CC3)n2)c(C)c1 (stereo not shown) [H_CC-035, 4-[[1-(4-methoxy-2,6-dimethylphenyl)sulfonyl-2-piperidinyl]methoxy]-2-[4-(3-pyridyl)-4-(2-1-pyrrolidinylethoxy)-1-piperidinyl]pyrimidine] as the molecule, how does the inhibition at 10 µM read?
Its inhibition at 10 µM is 86%.

COc1cc(C)c(S(=O)(=O)N(C)C(COc2ccnc(N3CCN(c4ccncc4)CC3)n2)c2ccccc2)c(C)c1 (stereo not shown) [H_CC-036, 4-methoxy-N,2,6-trimethyl-N-[1-phenyl-2-[[2-[4-(4-pyridyl)-1-piperazinyl]-4-pyrimidinyl]oxy]ethyl]benzenesulfonamide] was tested. Which inhibition at 10 µM did it give?
Its inhibition at 10 µM is 71%.

Which inhibition at 10 µM does the source give for CN(C(COc1ccnc(N2CCC(OCCN3CCCC3)(c3cccnc3)CC2)n1)c1ccccc1)S(=O)(=O)c1ccc2ccccc2c1 (stereo not shown) [H_CC-038, N-methyl-N-[1-phenyl-2-[[2-[4-(3-pyridyl)-4-(2-1-pyrrolidinylethoxy)-1-piperidinyl]-4-pyrimidinyl]oxy]ethyl]-2-naphthalenesulfonamide] here?
Its inhibition at 10 µM is 70%.

COc1cc(C)c(S(=O)(=O)N(C)CCOc2ccnc(N3CCC4(CCN(Cc5ccc(F)cc5)C4=O)CC3)n2)c(C)c1 [H_CC-039, N-[2-[[2-[3-[(4-fluorophenyl)methyl]-4-oxo-3,8-diazaspiro[4.5]decan-8-yl]-4-pyrimidinyl]oxy]ethyl]-4-methoxy-N,2,6-trimethylbenzenesulfonamide] was tested. Which inhibition at 10 µM did it give?
Its inhibition at 10 µM is 50%.

With COc1cc(C)c(S(=O)(=O)N2CCC[C@H]2COc2ccnc(N3CCC(OCCN4CCCC4)(c4cccnc4)CC3)n2)c(C)c1 [H_CC-040, 4-[[(2S)-1-(4-methoxy-2,6-dimethylphenyl)sulfonyl-2-pyrrolidinyl]methoxy]-2-[4-(3-pyridyl)-4-(2-1-pyrrolidinylethoxy)-1-piperidinyl]pyrimidine] as the molecule, how does the inhibition at 10 µM read?
The inhibition at 10 µM was 51%.

How did the inhibition at 10 µM turn out when COc1cc(C)c(S(=O)(=O)N2CCCC(Oc3ccnc(N4CCC(CCN5CCCCC5)CC4)n3)C2)c(C)c1 (stereo not shown) [H_CC-041, 4-[[1-(4-methoxy-2,6-dimethylphenyl)sulfonyl-3-piperidinyl]oxy]-2-[4-[2-(1-piperidyl)ethyl]-1-piperidinyl]pyrimidine] was run?
The inhibition at 10 µM was 48%.

COc1cc(C)c(S(=O)(=O)N2CCCCC2COc2ccnc(N3CCCN(Cc4ccccn4)CC3)n2)c(C)c1 (stereo not shown) [H_CC-042, 1-[4-[[1-[(4-methoxy-2,6-dimethyl-phenyl)sulfonyl]-piperidin-2-yl]-methoxy]-pyrimidin-2-yl]-4-(pyridin-2-yl-methyl)-[1,4]diazepan] was tested. Which inhibition at 10 µM did it give?
The inhibition at 10 µM was 61%.

For COc1cc(C)c(S(=O)(=O)N2CCCCC2COc2ccnc(N(C)CCN3CCC(c4ccccc4)(N(C)C)CC3)n2)c(C)c1 (stereo not shown) [H_CC-044, 2-(4-dimethylamino-4-phenyl-piperidin-1-yl)-ethyl-[4-[[1-[(4-methoxy-2,6-dimethyl-phenyl)sulfonyl]-piperidin-2-yl]-methoxy]-pyrimidin-2-yl]-methyl-amine], which inhibition at 10 µM is on record?
Its inhibition at 10 µM is 102%.

How did the inhibition at 10 µM turn out when CCCCC1(N(C)C)CCN(CCN(C)c2nccc(OCC3CCCCN3S(=O)(=O)c3c(C)cc(OC)cc3C)n2)CC1 (stereo not shown) [H_CC-045, 2-(4-butyl-4-dimethylamino-piperidin-1-yl)-ethyl-[4-[[1-[(4-methoxy-2,6-dimethyl-phenyl)sulfonyl]-piperidin-2-yl]-methoxy]-pyrimidin-2-yl]-methyl-amine] was run?
Its inhibition at 10 µM is 96%.

With COc1cc(C)c(S(=O)(=O)N2CCC[C@H]2COc2ccnc(N(C)CCCN3CCC(c4ccccc4)(N(C)C)CC3)n2)c(C)c1 [H_CC-046, 3-(4-dimethylamino-4-phenyl-piperidin-1-yl)-propyl-[4-[[(2S)-1-[(4-methoxy-2,6-dimethyl-phenyl)sulfonyl]-pyrrolidin-2-yl]-methoxy]-pyrimidin-2-yl]-methyl-amine] as the molecule, how does the inhibition at 10 µM read?
Its inhibition at 10 µM is 89%.

Which inhibition at 10 µM does the source give for COc1cc(C)c(S(=O)(=O)N2CCC[C@H]2COc2ccnc(N3CCC(O)(c4ccccn4)CC3)n2)c(C)c1 [H_CC-047, 1-[4-[[(2S)-1-[(4-methoxy-2,6-dimethyl-phenyl)sulfonyl]-pyrrolidin-2-yl]-methoxy]-pyrimidin-2-yl]-4-pyridin-2-yl-piperidin-4-ol] here?
Its inhibition at 10 µM is 85%.

COc1cc(C)c(S(=O)(=O)N2CCCCC2COc2ccnc(N(C)CCN3CCC(Oc4ccncc4)CC3)n2)c(C)c1 (stereo not shown) [H_CC-049, [4-[[1-[(4-methoxy-2,6-dimethyl-phenyl)sulfonyl]-piperidin-2-yl]-methoxy]-pyrimidin-2-yl]-methyl-[2-(4-pyridin-4-yloxy-piperidin-1-yl)-ethyl]amine] was tested. Which inhibition at 10 µM did it give?
The inhibition at 10 µM was 94%.

Which inhibition at 10 µM does the source give for COc1cc(C)c(S(=O)(=O)N2CCCCC2COc2ccnc(N3[C@@H]4CC[C@H]3CC(Oc3ccncc3)C4)n2)c(C)c1 (stereo partly drawn) [H_CC-050, (1S,5R)-8-[4-[[1-[(4-methoxy-2,6-dimethyl-phenyl)sulfonyl]-piperidin-2-yl]-methoxy]-pyrimidin-2-yl]-3-pyridin-4-yloxy-8-azabicyclo[3.2.1]octane] here?
The inhibition at 10 µM was 74%.

COc1cc(C)c(S(=O)(=O)N2CCC[C@H]2COc2ccnc(N(C)CCN3CCC(Oc4ccncc4)CC3)n2)c(C)c1 [H_CC-051, [4-[[(2S)-1-[(4-methoxy-2,6-dimethyl-phenyl)sulfonyl]-pyrrolidin-2-yl]-methoxy]-pyrimidin-2-yl]-methyl-[2-(4-pyridin-4-yloxy-piperidin-1-yl)-ethyl]amine] was tested. Which inhibition at 10 µM did it give?
Its inhibition at 10 µM is 99%.

How did the inhibition at 10 µM turn out when CCCCC1(N(C)C)CCN(CCN(C)c2nccc(OC3CCCN(S(=O)(=O)c4c(C)cc(OC)cc4C)C3)n2)CC1 (stereo not shown) [H_CC-053, 2-(4-butyl-4-dimethylamino-piperidin-1-yl)-ethyl-[4-[1-[(4-methoxy-2,6-dimethyl-phenyl)sulfonyl]-piperidin-3-yl]oxy-pyrimidin-2-yl]-methyl-amine] was run?
Its inhibition at 10 µM is 95%.

Which inhibition at 10 µM does the source give for COc1cc(C)c(S(=O)(=O)N2CCC[C@H]2COc2ccnc(N(C)CCN3CCC(c4ccccc4)(N(C)C)CC3)n2)c(C)c1 [H_CC-054, 2-(4-dimethylamino-4-phenyl-piperidin-1-yl)-ethyl-[4-[[(2S)-1-[(4-methoxy-2,6-dimethyl-phenyl)sulfonyl]-pyrrolidin-2-yl]-methoxy]-pyrimidin-2-yl]-methyl-amine] here?
Its inhibition at 10 µM is 83%.

COc1cc(C)c(S(=O)(=O)N2CCC[C@H]2COc2ccnc(N(C)CCN3CCC(c4ccccc4)(N4CCCC4)CC3)n2)c(C)c1 [H_CC-055, [4-[[(2S)-1-[(4-methoxy-2,6-dimethyl-phenyl)sulfonyl]-pyrrolidin-2-yl]-methoxy]-pyrimidin-2-yl]-methyl-[2-(4-phenyl-4-pyrrolidin-1-yl-piperidin-1-yl)-ethyl]-amine] was tested. Which inhibition at 10 µM did it give?
Its inhibition at 10 µM is 92%.

For CCCCC1(N(C)C)CCN(CCN(C)c2nccc(OC[C@@H]3CCCN3S(=O)(=O)c3c(C)cc(OC)cc3C)n2)CC1 [H_CC-056, 2-(4-butyl-4-dimethylamino-piperidin-1-yl)-ethyl-[4-[[(2S)-1-[(4-methoxy-2,6-dimethyl-phenyl)sulfonyl]-pyrrolidin-2-yl]-methoxy]-pyrimidin-2-yl]-methyl-amine], which inhibition at 10 µM is on record?
The inhibition at 10 µM was 98%.

Which inhibition at 10 µM does the source give for COc1cc(C)c(S(=O)(=O)N2c3ccccc3C[C@H]2COc2ccnc(N(C)CCN3CCC(c4ccccc4)(N(C)C)CC3)n2)c(C)c1 [H_CC-057, 2-(4-dimethylamino-4-phenyl-piperidin-1-yl)-ethyl-[4-[[(2S)-1-[(4-methoxy-2,6-dimethyl-phenyl)sulfonyl]-2,3-dihydro-1H-indol-2-yl]-methoxy]-pyrimidin-2-yl]-methyl-amine] here?
The inhibition at 10 µM was 98%.

With CCCCC1(N(C)C)CCN(CCN(C)c2nccc(OC[C@@H]3Cc4ccccc4N3S(=O)(=O)c3c(C)cc(OC)cc3C)n2)CC1 [H_CC-058, 2-(4-butyl-4-dimethylamino-piperidin-1-yl)-ethyl-[4-[[(2S)-1-[(4-methoxy-2,6-dimethyl-phenyl)sulfonyl]-2,3-dihydro-1H-indol-2-yl]-methoxy]-pyrimidin-2-yl]-methyl-amine] as the molecule, how does the inhibition at 10 µM read?
Its inhibition at 10 µM is 97%.

How did the inhibition at 10 µM turn out when COc1cc(C)c(S(=O)(=O)N(C)CCOc2ccnc(N(C)CCN3CCC(c4ccccc4)(N4CCCC4)CC3)n2)c(C)c1 [H_CC-059, 4-methoxy-N,2,6-trimethyl-N-[2-[2-[methyl-[2-(4-phenyl-4-pyrrolidin-1-yl-piperidin-1-yl)-ethyl]-amino]-pyrimidin-4-yl]oxy-ethyl]-benzenesulfonic acid amide] was run?
The inhibition at 10 µM was 91%.
